Experimental data from patent US20100291034A1, “COMBINATIONS OF HCV PROTEASE INHIBITOR(S) AND CYP3A4 INHIBITOR(S), AND METHODS OF TREATMENT RELATED THERETO” (Schering Corporation, priority 2006, published 2010).
Read-outs that look alike come from different tables or passages of the source.

Assays:
human liver cytosol = test: Incubation of compound Formula Ia or Formula XXVII in human liver cytosol with AKR inhibitor or CYP3A4 inhibitor (formation of M+2 metabolite, LC-MS); format: in vitro ADME
Procedure: Prior to the addition of drug, the incubation mixture was preincubated for 2 min at 37° C. […] Human liver microsomes and cytosol without NADPH served as negative controls. Parallel incubations with the compound of Formula Ia were used as positive controls. […] All incubations were performed as described previously for human liver cytosols. […] Parallel incubations with the compound of Formula Ia were used as positive controls.

[1] = Clinical study: effect of ketoconazole or ibuprofen on the pharmacokinetics of Formula Ia; format: in vivo, human; details: for AUC / half-life: human, plasma, po, 400 mg
Procedure: The study was conducted in an open-label, randomized, 3-period, 2-sequence crossover manner (FIG. 2). During Period 1, all 12 human subjects were administered a single 400 mg dose of Formula Ia. During Periods 2 and 3, human subjects received multiple doses of interacting drug, either ketoconazole (400 mg BID) or ibuprofen (600 mg TID) in a randomized sequence. The interacting drug was administered beginning on Day 1 (3 days prior to Formula Ia administration) and continued through Day 6. A single dose of Formula Ia was administered on Day 4 (2 hours after administration of the AM dose of interacting drug). Plasma samples for pharmacokinetic and metabolite analyses of Formula Ia was collected at predose (0 hour), 0.5, 1, 1.5, 2, 2.5, 3, 4, 5, 6, 7, 8, 9, 10, 12, 24, 36, 48, and 72 hour postdose for each period. (The 48 and 72 hour postdose samples for Period 1 was collected in an outpatient setting). In Periods 2 and 3, additional blood samples were collected immediately prior to dosing of the Formula Ia on Day 4 and two hours post ketoconazole/ibuprofen administration on Day 5 for determination of ketoconazole or ibuprofen concentration. • Treatment A: Formula Ia (4×100 mg capsules); single dose, P.O following an overnight fast, administered on Day 1 or Period 1. • Treatment B: Ketoconazole 400 mg; PO, administered BID from Day 1 to Day 6, Formula Ia (4×100 mg capsules); single dose, PO following an overnight fast, administered on Day 4 (2 hours after the AM ketoconazole dose). • Treatment C: Ibuprofen 600 mg; PO, TID from Day 1 to Day 6 Formula Ia (4×100 mg capsules); single dose, PO following an overnight fast, administered on Day 4 (2 hours after the AM ibuprofen dose).
Human subjects received a single dose of Formula Ia on Day 1 of Period 1. In Period 2 and Period 3, human subjects were treated for 6 days with either ketoconazole or ibuprofen and received a single dose of Formula Ia on Day 4 of each period. There were at least 7 days between administration of Formula Ia in Period 1 and Period 2 and at least 14 days between administration of Formula Ia in Period 2 and 3.
The proportion of human subjects with plasma concentrations above the in vitro IC50 and IC90 for the HCV replicon at each time point was determined. This plasma concentration data was used to estimate the following primary pharmacokinetic variables for the determination of bioavailability comparisons: • AUC(tf)—Area under the plasma concentration-time curve from Time 0 […]. • Cmax—Maximum observed plasma concentration. • Tmax—Time to maximum observed plasma concentration. • t½—Terminal phase half-life.

[2] = Clinical study: pharmacokinetics of Formula Ia administered in combination with ritonavir; format: in vivo, human
Procedure: This study was an open-label, randomized, 2-period fixed-sequence, multiple-dose study (FIG. 4). The safety of coadministration of Formula Ia and ritonavir, as well as the quantitation of the ability of ritonavir to enhance Formula Ia PK parameters (specifically trough concentration values) in healthy human subjects was explored. A dose of 400 mg TID of Formula Ia coadministered with ritonavir was selected, as we have substantial safety and PK data available with Formula Ia administered alone at 400 mg TID and 800 TID for comparison. The dose selected of ritonavir was at a level to inhibit CYP3A4 and below the therapeutic dose for HIV. […] In this study, the effect of ritonavir on Formula Ia was examined as a low dose (100 mg) at two different dosing frequencies (i.e., once in the morning (QAM) and twice a day (BID)), which are commonly administered in HIV therapy. Based upon the findings of these regimens, subsequent regimens may be explored, with modification of the Formula Ia and/or ritonavir component(s). Human subjects received Formula Ia alone for 5 days in order to achieve steady-state. Human subjects were then randomized to receive one of two treatment regimens in which ritonavir was coadministered with Formula Ia (Formula Ia for 10 days, ritonavir administered for 12 days). Steady-state PK samples for Formula Ia were collected on Day 5 (Formula Ia alone), and on Day 15 (Formula Ia+ritonavir) and the PK parameters (primarily trough concentrations values) compared. […] In Period 1, all 16 human subjects received Treatment A and in Period 2 human subjects were randomized to either Treatment B or Treatment C (8 human subjects/treatment). […] Treatment A: Formula Ia 400 mg TID, every 8 hours) (Q8° following a meal or snack. Period 2 (Days 6 to 17): Treatment B: Formula Ia 400 mg TID (Q8°, Days 6 to 15), ritonavir 100 mg QAM (Days 6 to 17), following a meal or snack; Treatment C: Formula Ia 400 mg BID, every 12 hours ([…]°), (Days 6 to 15), ritonavir 100 mg BID, […]° (Days 6 to 17), following a meal or snack. Formula Ia (2×200 mg 3% SLS containing capsules), PO, TID, following a meal or snack. Formula Ia (2×200 mg 3% SLS containing capsules), PO, BID, following a meal or snack. Ritonavir (1×100 mg capsules), PO, QAM, following a meal or snack. Ritonavir (1×100 mg capsules), PO, BID, following a meal or snack. The trough levels after multiple-dosing of Formula Ia alone (Day 5) and after multiple-dosing of Formula Ia in combination with ritonavir (Day 15) were compared. […] AUC, Cmax, Cmin, and Tmax. […] The primary pharmacokinetic parameter is Cmin. The secondary parameters are Cmax and AUC. The log transformed pharmacokinetic parameters including Cmin, AUC, and Cmax were statistically analyzed using ANOVA model extracting effects due to treatment and human subject. […] The corresponding 90% confidence intervals were also provided. There is no intention to compare Treatments B and C to each other. • Treatment A: Formula Ia 400 mg TID (Q8°) following a meal or snack. Period 2 (Days 6 to 17). • Treatment B: Formula Ia 400 mg TID (Q8°, Days 6 to 15), ritonavir 100 mg QAM (Days 6 to 17) following a meal or snack. • Treatment C: Formula Ia 400 mg BID ([…]° Days 6 to 15), ritonavir 100 mg BID ([…]°, Days 6 to 17) following a meal or snack.

[3] = Exposure to Formula Ia when coadministered with food; format: in vivo
[4] = Exposure multiple of Formula Ia, most sensitive animal species versus humans; format: in vivo; details: most sensitive animal species compared with mean exposure in humans receiving 400 mg TID
HCV [5] = test: EC90 of Formula XIVa used as plasma concentration threshold; details: Hepatitis C virus
[6] = in vivo; cited from earlier work
HCV [7] = details: HCV positive patients, Nelson et al. 2003; cited from earlier work
[8] = Mean (% CV), plasma Formula Ia, single 400 mg dose PO, human subjects
[9] = co-administering ketoconazole with Formula Ia

CC(C)(C)NC(=O)N[C@H](C(=O)N1CC2C([C@H]1C(=O)NC(CC1CCC1)C(=O)C(N)=O)C2(C)C)C(C)(C)C (some centres unmarked) [Formula Ia]
1ST PARENT PEAK AREA (human liver cytosol; HL Cytosol w/ NADPH + 2 uM Ritonavir): 3.81E+07
1ST PARENT PEAK AREA (human liver cytosol; HL Cytosol w/ NADPH + 50 uM Mefenamic acid): 6.19E+07
1ST PARENT PEAK AREA (human liver cytosol; HL Cytosol w/ NADPH + 100 uM Flufenamic acid): 6.33E+07
1ST PARENT PEAK AREA (human liver cytosol; HL Cytosol w/ NADPH + 100 uM Phenolphthalein): 6.23E+07
1ST PARENT PEAK AREA (human liver cytosol; HL Cytosol w/ NADPH + 200 uM Diflunisal): 6.10E+07
1ST PARENT PEAK AREA (human liver cytosol; HL Cytosol w/ NADPH Vehicle Control): 3.95E+07
1ST PARENT PEAK AREA (human liver cytosol; HL Cytosol w/o NADPH, 20 μM substrate, 60 min, 37° C.): 7.41E+07
Cmax ([1]; Mean (% CV), plasma Formula Ia, single 400 mg dose PO, fasted human subjects, alone or with ketoconazole 400 mg BID or ibuprofen 600 mg TID): 571 ng/mL
AUC(0-t) [1, 8]: 2000 ng·h/mL
C8 [1, 8]: 48.0 (38)
MRT [1, 8]: 6.57 h
increase in Cmax (average) [1, 9]: 40%
increase of overall exposure (AUC) [1, 9]: more than 2 fold
increase of trough concentration (C8) [1, 9]: approximately 3 fold
increase in the bioavailability of Formula Ia ([1]; coadministration of ketoconazole compared to monotherapy of Formula Ia alone): 2 fold
mean residence time (MRT) and effective half-life ([1]; effect of ketoconazole): increased
AUC ([1]; Mean (% CV), plasma Formula Ia, single 400 mg dose PO, human subjects, read-out: AUC(l)): 2070 ng·h/mL
AUC ([1]; Mean (% CV), plasma Formula Ia, single 400 mg dose PO, human subjects, read-out: AUCall): 2040 ng·h/mL
half-life ([1]; Mean (% CV), plasma Formula Ia, single 400 mg dose PO, human subjects, read-out: t½ (converted)): 547 min
half-life ([1]; Mean (% CV), plasma Formula Ia, single 400 mg dose PO, human subjects, read-out: t½ eff (converted)): 198 min
Tmax ([1]; median, plasma Formula Ia, single 400 mg dose PO, human subjects): 1.75 h
C8 ([2]; Mean PK (% CV), Formula Ia TID (400 mg) alone, Day 5): 104 (31)
effect on the PK parameters examined ([2]; coadministration with 100 mg ritonavir QD or BID compared to monotherapy of Formula Ia alone): no effect
Tmax ([2]; human, plasma, oral, Mean PK (% CV), Formula Ia TID (400 mg) alone, Day 5): 2.13 h
AUC ([2]; human, plasma, oral, Mean PK (% CV), Formula Ia TID (400 mg) alone, Day 5, read-out: AUC8): 4120 ng·h/mL
Cmax ([2]; plasma, oral, Mean PK (% CV), Formula Ia TID (400 mg) alone, Day 5, with food, healthy human subjects): 1360 ng/mL
exposure [3]: increases
exposure multiple [4]: ≥ 4 fold

CCCCC(NC(=O)[C@@H]1[C@@H]2[C@H](CN1C(=O)[C@@H](NC(=O)NC1(CS(=O)(=O)C(C)(C)C)CCCCC1)C(C)(C)C)C2(C)C)C(=O)C(=O)NC1CC1 (some centres unmarked) [Formula XIVa]
EC90 (HCV [5]): 0.03 µg/mL

CC(C)c1nc(CN(C)C(=O)N[C@H](C(=O)N[C@@H](Cc2ccccc2)C[C@H](O)[C@H](Cc2ccccc2)NC(=O)OCc2cncs2)C(C)C)cs1 [ritonavir]
half life [6]: 3 to 5 h

B1: recombinant human IL-10: recombinant human IL-10 given to HCV positive patients in a Phase II clinical study (protein)
chain: SPGQGTQSENSCTHFPGNLPNMLRDLRDAFSRVKTFFQMKDQLDNLLLKESLLEDFKGYLGCQALSEMIQFYLEEVMPQAENQDPDIKAHVNSLGENLKTLRLRLRRCHRFLPCENKSKAVEQVKNAFNKLQEKGIYKAMSEFDIFINYIEAYMTMKIRN
hepatic fibrosis (HCV [7]): decrease
viral load (HCV [7]): increase
